Consider four molecules from patent US4650803A, “Prodrugs of rapamycin” (University of Kansas, priority 1985, dated 1987).

The structures appear in SMILES notation. “Also recorded” adds a separate entry of the source. Structures can show the parent of a compound that is named as a salt. Some results are limits rather than exact numbers.

Data set [1] is described as follows: Solubility in water. The format is physicochemical.
A short description of data set [2]: Stability to light and to long stirring. The format is physicochemical.
A short description of data set [3]: Human plasma stability study (37.5° C.). It is filed as in vitro ADME. To be noted: for half-life: human, plasma. The protocol: (§1) The plasma studies were done at three prodrug concentrations: 200, 100 and 50 μg/ml of prodrug. The experimental procedure was as follows: The compound to be tested was taken from a stock aqueous solution of 5 mg/ml and added to the plasma to give the desired prodrug concentration. […] Before centrifugation 200 μl of methanol was added to further precipitate the plasma proteins. The results are expressed in half-lives in hours.
(§2) The chemical and plasma studies were followed by HPLC using a RP C-18 column (150 mm) and a precolumn (50 mm). […] Chart speed was 1 inch/10 minutes.

Data set [4] in a line: Rat liver homogenate stability study (37.5° C.). It is filed as in vitro ADME, male albino Sprague-Dawley rats. To be noted: 20% rat liver homogenate, pH 7.4, 50 μg/ml, read-out: t1/2 (liver homogenate stability) (converted). As to the method: (§3) The liver homogenate studies were done using livers freshly obtained from male albino Sprague-Dawley rats. A 20% liver homogenate was prepared in Sorensen's buffer at pH 7.4. Chemical stability studies of rapamycin and the two prodrugs of Examples 2 and 3 were carried out at concentrations of 20, 50 and 50 μg/ml respectively, at 37.5° C.

Data set [5] is described as follows: Chemical stability study in buffers (hydrolysis half-life, HPLC). To be noted: buffer, read-out: t1/2 (chemical stability) (converted). It is filed as physicochemical. As to the method: In the examples, chemical stability studies for rapamycin and the prodrugs were done at 20 μg/ml with an ionic strength of 0.5. Stabilities at pH 3.3 (0.05M acetate buffer) and pH 7.4 (0.05M phosphate buffer) were studied at 25° and 37.5° C. No antioxidants were added and the buffers were not deoxygenated.
as §2

Data set [6] is described as follows: Rat plasma stability study (37.5° C.). The format is in vitro ADME, Sprague-Dawley male albino rats. To be noted: for half-life: rat, plasma, read-out: t1/2 (plasma stability) (converted). The protocol: as §1, §2
For data set [7] the following is noted: background statement; cited from earlier work.
Data set [8] in a line: Products of decomposition/hydrolysis in plasma and homogenate studies (HPLC, TLC). As to the method: as §3
Where [9] appears, read: human plasma, 50 μg/ml, 37.5° C., read-out: t1/2 (plasma stability) (converted).

For `CO[C@H]1C[C@@H]2CC[C@@H](C)[C@@](O)(O2)C(=O)C(=O)N2CCCC[C@H]2C(=O)O[C@H]([C@H](C)C[C@@H]2CC[C@@H](O)[C@H](OC)C2)CC(=O)[C@H](C)/C=C(\C)[C@@H](OC(=O)CCCN2CCCC2)[C@@H](OC)C(=O)[C@H](C)C[C@H](C)/C=C/C=C/C=C/1C` [Example 4, Mono-(28)-4'-(N-pyrrolidino)-butyrate Hydrochloride Salt Ester of Rapamycin], the solubility in data set [1] was ~15 mg/mL. The “stability on prolonged exposure to light” value in data set [2] is recorded as “appears to discolor upon prolonged exposure to light”.

As to `CO[C@H]1C[C@@H]2CC[C@@H](C)[C@@](O)(O2)C(=O)C(=O)N2CCCC[C@H]2C(=O)O[C@H]([C@H](C)C[C@@H]2CC[C@@H](O)[C@H](OC)C2)CC(=O)[C@H](C)/C=C(\C)[C@@H](OC(=O)CN(C)C)[C@@H](OC)C(=O)[C@H](C)C[C@H](C)/C=C/C=C/C=C/1C` [Example 2, Methanesulfonic Acid Salt of Mono-(28)-N,N Dimethylglycinate Ester of Rapamycin], the “t1/2 (plasma stability)” value turned out to be 5.0 h in data set [3] (human plasma, 50 μg/ml, 37.5° C.) and 1.75 h in data set [6] (50 μg/ml). In addition, the half-life is 5 h in data set [3] (setting [9]); 4.8 h in data set [3] (human plasma, 100 μg/ml, 37.5° C., read-out: t1/2 (plasma stability) (converted)); 5.6 h in data set [3] (human plasma, 200 μg/ml, 37.5° C., read-out: t1/2 (plasma stability) (converted)); 4.5 h in data set [4]; 73 h in data set [5] (pH 3.3, pH 3.3, 25° C.); 45 h in data set [5] (pH 7.4, pH 7.4, 25° C.). Further, the half-life in data set [6] (50 μg/ml) is 1.8 h; in data set [6] (100 μg/ml), 1.8 h; in data set [6] (200 μg/ml) it was 2.5 h. In data set [1], the solubility was > 50 mg/mL. Besides, the “stability on prolonged exposure to light” value in data set [2] is recorded as “slow discoloration of the material; also recorded: appears to discolor upon prolonged exposure to light”. The “stability to long stirring times” value in data set [2] (salt form) is “unstable to long stirring times”.

For the molecule `CO[C@H]1C[C@@H]2CC[C@@H](C)[C@@](O)(O2)C(=O)C(=O)N2CCCC[C@H]2C(=O)O[C@H]([C@H](C)C[C@@H]2CC[C@@H](O)[C@H](OC)C2)CC(=O)[C@H](C)/C=C(\C)[C@@H](O)[C@@H](OC)C(=O)[C@H](C)C[C@H](C)/C=C/C=C/C=C/1C` [Rapamycin, rapamycin], the Solubility in water in data set [7] is reported as 20 micrograms per milliliter. Further, the “further degradation (TLC)” value in data set [8] (plasma and homogenate studies, TLC) is recorded as “further degraded to other decomposition products”. In addition, the half-life in data set [3] (setting [9]) is 3 h; in data set [4] it was 5.5 h; in data set [5] (pH 3.3, pH 3.3, 25° C.) it was 35.8 h; in data set [5] (pH 3.3, pH 3.3, 37.5° C.), 9.9 h; in data set [5] (pH 7.4, pH 7.4, 25° C.), 47.6 h; in data set [5] (pH 7.4, pH 7.4, 37.5° C.), 10.2 h. In data set [6] (50 μg/ml), the half-life is 2.83 h.

Consider `CCN(CC)CCC(=O)O[C@@H]1/C(C)=C/[C@@H](C)C(=O)C[C@@H]([C@H](C)C[C@@H]2CC[C@@H](O)[C@H](OC)C2)OC(=O)[C@@H]2CCCCN2C(=O)C(=O)[C@]2(O)O[C@@H](CC[C@H]2C)C[C@H](OC)/C(C)=C/C=C/C=C/[C@@H](C)C[C@@H](C)C(=O)[C@@H]1OC` [Example 3, Mono-(28)-3-(N,N-Diethylamino)propionate Hydrochloride Salt Ester of Rapamycin], for which the “observed product of hydrolysis / decomposition” value in data set [8] is reported as “rapamycin being the only observed product of hydrolysis”. For the same molecule, the “half life of the prodrug compared with the others” value in data set [3] was “the shortest”. Also, in data set [3], the “time within which half of the prodrug decomposed into products including mainly rapamycin” value was “two and one-half”. Besides, the half-life in data set [3] (t1/2 (plasma stability)) is 2.5 h; in data set [4], 3.7 h; in data set [6] (100 μg/ml), 58 h; in data set [6] (200 μg/ml), 60 h. Further, in data set [1], the solubility was > 50 mg/mL. The “stability on prolonged exposure to light” value in data set [2] is recorded as “unstable to prolonged exposure to light; also recorded: appears to discolor upon prolonged exposure to light”.
